SMILES strings stand for the structures.

The target of one experiment is T1, KDM3B (JMJD1B) (Homo sapiens, UniProt Q7LBC6).
T1 construct: 842-1761; host or cells: Bac (baculovirus system)
T1 sequence (Q7LBC6 842-1761): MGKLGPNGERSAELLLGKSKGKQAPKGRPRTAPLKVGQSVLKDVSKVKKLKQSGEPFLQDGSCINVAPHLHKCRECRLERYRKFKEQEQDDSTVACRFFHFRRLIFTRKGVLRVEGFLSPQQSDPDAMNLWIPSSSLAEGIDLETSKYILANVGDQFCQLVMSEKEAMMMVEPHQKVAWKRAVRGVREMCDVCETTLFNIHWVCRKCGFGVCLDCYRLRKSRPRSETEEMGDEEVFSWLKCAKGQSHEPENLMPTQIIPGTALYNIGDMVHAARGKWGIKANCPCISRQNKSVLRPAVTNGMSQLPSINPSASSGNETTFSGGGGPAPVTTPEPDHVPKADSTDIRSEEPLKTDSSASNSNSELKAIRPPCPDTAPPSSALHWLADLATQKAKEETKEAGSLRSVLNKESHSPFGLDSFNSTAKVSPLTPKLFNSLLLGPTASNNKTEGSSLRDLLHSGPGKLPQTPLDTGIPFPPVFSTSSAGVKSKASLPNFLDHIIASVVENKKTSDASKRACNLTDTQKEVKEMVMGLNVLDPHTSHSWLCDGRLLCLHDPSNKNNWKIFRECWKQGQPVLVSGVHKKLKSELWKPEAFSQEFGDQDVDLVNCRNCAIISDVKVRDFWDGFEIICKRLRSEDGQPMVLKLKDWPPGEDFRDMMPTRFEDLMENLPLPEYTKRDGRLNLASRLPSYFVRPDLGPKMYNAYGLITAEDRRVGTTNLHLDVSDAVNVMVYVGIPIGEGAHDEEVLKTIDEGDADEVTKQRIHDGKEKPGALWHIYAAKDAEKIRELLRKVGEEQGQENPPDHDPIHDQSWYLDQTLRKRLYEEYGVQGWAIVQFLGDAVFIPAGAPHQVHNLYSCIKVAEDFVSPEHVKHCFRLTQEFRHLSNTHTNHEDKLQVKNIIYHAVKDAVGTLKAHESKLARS
As to the kind of experiment: Histone lysine demethylase AlphaLISA assay, KDM3B. The experiment is classed as biochemical. The following applies: read-out: KDM3B HDME Inhibition IC50. The essentials:
(§1)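 AlphaLISA demethylation readout: enzyme preincubated 10 min, then 10 min with compounds in 3% DMSO buffer, before biotinylated methyl-lysine histone peptide substrate with 25 μM L-Asc and 10 μM α-KG, room temperature. Acceptor beads then streptavidin donor beads added, dark incubation, plates read.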
(In general: In Alpha technology, singlet oxygen from a donor bead excites a nearby acceptor bead.)

In the next experiment the target is T2, KDM5B (PLU-1) (Homo sapiens, UniProt Q9UGL1).
T2 sequence (Q9UGL1 1-809): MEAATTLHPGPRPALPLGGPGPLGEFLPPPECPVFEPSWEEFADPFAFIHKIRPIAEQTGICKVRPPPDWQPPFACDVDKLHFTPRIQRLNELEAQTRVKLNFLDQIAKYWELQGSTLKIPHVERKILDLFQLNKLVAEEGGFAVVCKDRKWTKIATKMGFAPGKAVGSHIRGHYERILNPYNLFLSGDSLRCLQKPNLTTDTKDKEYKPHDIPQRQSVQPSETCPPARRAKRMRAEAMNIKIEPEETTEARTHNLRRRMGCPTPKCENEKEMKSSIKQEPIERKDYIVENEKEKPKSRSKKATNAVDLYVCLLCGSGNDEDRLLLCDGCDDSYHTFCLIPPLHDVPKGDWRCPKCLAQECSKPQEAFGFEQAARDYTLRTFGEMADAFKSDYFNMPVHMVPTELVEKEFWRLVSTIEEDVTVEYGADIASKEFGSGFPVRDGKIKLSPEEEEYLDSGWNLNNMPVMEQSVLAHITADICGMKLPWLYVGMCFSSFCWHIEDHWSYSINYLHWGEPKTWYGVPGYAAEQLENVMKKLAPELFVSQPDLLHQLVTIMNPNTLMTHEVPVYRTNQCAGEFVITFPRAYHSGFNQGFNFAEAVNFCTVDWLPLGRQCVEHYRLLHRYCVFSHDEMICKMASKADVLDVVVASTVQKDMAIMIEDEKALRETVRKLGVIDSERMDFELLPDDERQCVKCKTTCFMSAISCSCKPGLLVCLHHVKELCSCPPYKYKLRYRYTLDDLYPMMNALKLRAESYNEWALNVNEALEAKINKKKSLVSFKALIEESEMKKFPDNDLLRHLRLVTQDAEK
The experiment in a line: Histone lysine demethylase AlphaLISA assay, KDM5B. The experiment is classed as biochemical. Particulars: read-out: KDM5B HDME Inhibition IC50. The essentials:
as §1

By IC50 is commonly meant the concentration that inhibits the measured activity by half. For `CN1CCN(C(=O)CNCc2cc(C=O)ccn2)CC1` [Compound 103, 2-({[2-(4-methylpiperazin-1-yl)-2-oxoethyl]-amino}methyl)-pyridine-4-carbaldehyde], the IC50 was > 2500 nM at KDM3B (JMJD1B) and 250 to 2500 nM at KDM5B (PLU-1).
In the case of `CCN1CCCC1CNC(=O)CNCc1cc(C=O)ccn1` (centres unmarked) [Compound 104, N-[(1-ethylpyrrolidin-2-yl)methyl]-2-{[(4-formylpyridin-2-yl)methyl]amino}-acetamide], the IC50 is > 2500 nM at KDM3B (JMJD1B) and < 250 nM on KDM5B (PLU-1).
For `CCN(CC)C(=O)CNCc1cc(C=O)ccn1` [Compound 105, N,N-diethyl-2-{[(4-formylpyridin-2-yl)methyl]amino}-acetamide], the IC50 is > 2500 nM at KDM3B (JMJD1B) and 250 to 2500 nM on KDM5B (PLU-1).
The like results for `O=Cc1ccnc(CNCC(=O)N2CCC(Cc3ccccc3)CC2)c1` [Compound 106, 2-({[2-(4-benzylpiperidin-1-yl)-2-oxoethyl]-amino}methyl)-pyridine-4-carbaldehyde] were, in that order, > 2500 nM and < 250 nM.
The like results for `CCN(CC)CCCCNCc1cc(C=O)ccn1` [Compound 107, 2-({[4-(diethylamino)-butyl]amino}-methyl)pyridine-4-carbaldehyde] were, in that order, > 2500 nM and < 250 nM.
With `CN(C)CCCCNCc1cc(C=O)ccn1` [Compound 108, 2-({[4-(dimethylamino)-butyl]amino}methyl)-pyridine-4-carbaldehyde], the values for the IC50 at KDM3B (JMJD1B) and at KDM5B (PLU-1) were > 2500 nM and 250 to 2500 nM, respectively.
The like results for `CN(C)CCNCc1cc(C=O)ccn1` [Compound 110, 2-({[2-(dimethylamino)-ethyl]amino}methyl)-pyridine-4-carbaldehyde] were, in that order, > 2500 nM and 250 to 2500 nM.
With `O=Cc1ccnc(CNCCCN2CCCC2)c1` [Compound 111, 2-({[3-(pyrrolidin-1-yl)propyl]amino}-methyl)pyridine-4-carbaldehyde], the results for the IC50 on KDM3B (JMJD1B) and on KDM5B (PLU-1) were > 2500 nM and < 250 nM, respectively.
Consider `CN(C)CCCCCNCc1cc(C=O)ccn1` [Compound 114, 2-({[5-(dimethylamino)-pentyl]amino}methyl)-pyridine-4-carbaldehyde], for which the IC50 is > 2500 nM at KDM3B (JMJD1B) and < 250 nM on KDM5B (PLU-1).
Consider `CCN(CC)CCCCN(Cc1cc(C=O)ccn1)C(=O)C(F)(F)F` [Compound 115, N-[4-(diethylamino)butyl]-2,2,2-trifluoro-N-[(4-formylpyridin-2-yl)methyl]acetamide], for which the half-inhibitory concentration (IC50) at KDM3B (JMJD1B) and at KDM5B (PLU-1) was > 2500 nM throughout.

The record behind these values is patent US9650339B2, “Inhibitors of histone demethylases” (Gilead Sciences, Inc., priority 2013, dated 2017).
